The text below walks through data of patent publication US12600732B2, “Bifunctional compounds for degrading BTK via ubiquitin proteosome pathway” (NURIX THERAPEUTICS, INC., priority 2019, dated 2026).

“And” between values parts separate entries of the source, which are not always exact repeats. Equal entries are not always repeated.

Data set [1] deals with T1, BTK (Canis lupus familiaris, UniProt A0A8I3P3Z9).
T1 construct: from tissue
Description: PD data from dog (BTK degradation). Particulars: blood. The data set is classed as in vivo. The source says: (§1) In this example, compounds were profiled for activity in non-mouse species.

The target in another data set is T2, ITK (Homo sapiens, UniProt Q08881).
T2 construct: endogenous in cells; host or cells: MOLT4, TMD8
T2 sequence (Q08881 1-620): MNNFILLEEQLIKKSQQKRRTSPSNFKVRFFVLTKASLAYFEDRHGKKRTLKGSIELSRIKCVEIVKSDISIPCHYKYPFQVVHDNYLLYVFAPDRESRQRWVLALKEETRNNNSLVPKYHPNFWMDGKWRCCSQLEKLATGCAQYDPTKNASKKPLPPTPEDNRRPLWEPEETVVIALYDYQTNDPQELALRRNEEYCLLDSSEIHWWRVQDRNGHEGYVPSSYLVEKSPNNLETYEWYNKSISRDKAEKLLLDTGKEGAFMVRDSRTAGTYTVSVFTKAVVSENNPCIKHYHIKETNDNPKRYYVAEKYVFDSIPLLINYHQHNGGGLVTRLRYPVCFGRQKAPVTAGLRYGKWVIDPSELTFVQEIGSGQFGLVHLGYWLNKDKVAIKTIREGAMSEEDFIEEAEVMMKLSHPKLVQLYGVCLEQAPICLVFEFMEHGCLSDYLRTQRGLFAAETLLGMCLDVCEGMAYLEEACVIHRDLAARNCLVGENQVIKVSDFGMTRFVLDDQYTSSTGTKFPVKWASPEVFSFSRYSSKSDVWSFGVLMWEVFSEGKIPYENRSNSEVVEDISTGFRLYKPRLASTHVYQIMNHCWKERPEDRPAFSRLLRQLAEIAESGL
Briefly: ITK levels in MOLT4 and TMD8 cells (FIGS. 10-12). The data set is classed as cell-based. Particulars: for effect on ITK levels in cells: MOLT4 and TMD8 cells, FIGS. 11A and 11B. The source says: FIGS. 10A and 10B provide effects of compounds 73, 72, 121, and 44, and control compounds, on neo-substrate and ITK or BTK levels after twenty-four hours in MOLT4 cells (FIG. 10A) and TMD8 cells (FIG. 10B).
FIGS. 11A and 11B provide effects of compounds 44, 72, and 149, and control compounds, on CRBN neo-substrate and ITK levels in MOLT4 cells (FIG. 11A) and TMD8 cells (FIG. 11B).
FIG. 12 provides effects of compounds 130, 149, and 44 on ITK levels and IMiD activity.

The test system of another data set is Rec-1 cells. Description: Cell viability assay (CellTiter-Glo), Rec-1 cells. Format: cell-based. To be noted: for EC50: Homo sapiens, Rec1, treatment time 72 h; for EMAX (% viable cells): treatment time 72 h. An excerpt: This example evaluates effects of CTM-mediated degradation on cell viability. […] Mino and Rec-1 are models of Mantle Cell Lymphoma, which is sensitive to IMiDs.
(ATP-based viability assays read luminescence as a measure of living cells.)

For another data set, the system named is TMD8 tumor cells. Description: TMD8 xenograft efficacy study (wild-type BTK). Format: in vivo, mouse. Particulars: TMD8 WT. On the procedure:
[…] Tumor growth inhibition (% TGI) were calculated on the final day of measurement using the equation [1−(T−T0/C−T0)]×100, where T and C represent the mean size of tumors in the treated (T) and control (C) groups, and T0 refers to the tumor size at randomization.
(§2) This example examines the activity of various BTK CTMs in relevant disease models, including the WT and C481S TMD8 model, which models B cell malignancies with/without inhibitor-driven BTK mutations at C481.

For the next data set, the system named is 1:1 TMD8 WT:TMD8 C481S. Description: Mouse xenograft efficacy study, 1:1 TMD8 WT:TMD8 C481S model. Format: in vivo. Particulars: PO, 30 mg/kg, BID, 21 days of dosing.
Description: (§3) Efficacy in Mouse Xenograft Models
as §2

In another data set the target is BTK C481S (Homo sapiens, UniProt Q06187, C481S). Description: BTK remaining in TMD8 C481S mouse xenograft study. Particulars: PO, 23 days of dosing. The data set is classed as in vivo. Set-up: from tissue; host or cells: TMD8 BTK-C481S xenograft in CB.17 SCID mice.
Description: as §3, §2

Data set [2] concerns the target BTK (Homo sapiens, UniProt Q06187). Description: BTK remaining in TMD8 WT mouse xenograft study. Format: in vivo. Also noted: from tissue; host or cells: TMD8 xenograft in CB.17 SCID mice.
Description: as §3, §2

For data set [3], the target named is T3, BTK (Rattus norvegicus, UniProt Q5S255).
T3 construct: from tissue
Briefly: PD data from rat (BTK degradation). To be noted: blood. Format: in vivo.
Description: as §1

Where [4] appears, read: after twenty-four hours, TMD8 and/or MOLT4 cells, FIGS. 10A and 10B.
Setting [5] is: PO (water bottle), 15 mg/kg, QD (water bottle), 21 days of dosing.
Setting [6] is: PO (water bottle), 35 mg/kg, QD (water bottle), 23 days of dosing.

In general, EC50 refers to the concentration needed to bring the measured effect to its halfway point. Lower therefore signals a more potent agent. As for `CN1CCN([C@@H]2CCCN(c3cnc(C(N)=O)c(Nc4ccc(C5CCN(C[C@H]6CCN(c7ccc8c(c7)C(=O)N(C7CCC(=O)NC7=O)C8=O)C6)CC5)cc4)n3)C2)C1=O` (some centres unmarked) [Compound 44], the “% BTK Remaining” value on BTK [1] (10 mg/kg PO, 2 h) amounted to 88%; on BTK [1] (10 mg/kg PO, 4 h), 56%; on BTK [1] (10 mg/kg PO, 8 h), 35%; at BTK [1] (10 mg/kg PO, 24 h), 19%; at BTK [1] (30 mg/kg PO, 2 h), 87%; on BTK [1] (30 mg/kg PO, 4 h) it was 58%. The “% BTK Remaining” value on BTK [1] (30 mg/kg PO, 8 h) is 28%; at BTK [1] (30 mg/kg PO, 24 h), 14%. Moreover, the “effect on ITK levels in cells” value at ITK is “some effect”. Also, the “effects on ITK levels” value at ITK (setting [4]) is recorded as “some effects”. Besides, the EC50 in the data set on Rec-1 cells was determined as 0.82 nM. Also, the “EMAX (% viable cells)” value in the data set on Rec-1 cells is 37%. The “Tumor Growth Inhibition (relative to vehicle)” value with TMD8 tumor cells (setting [5]) is 29%; in the data set with TMD8 tumor cells (setting [6]), 89%; in the data set on TMD8 tumor cells (PO, 7.5 mg/kg, BID, 21 days of dosing), 100%; in the data set with TMD8 tumor cells (PO, 15 mg/kg, BID, 21 days of dosing) it was 100%; in the data set on TMD8 tumor cells (PO, 30 mg/kg, BID, 23 days of dosing), 99%; in the data set on TMD8 tumor cells (PO, 30 mg/kg, QD, 23 days of dosing), 83%. Besides, the “Tumor Growth Inhibition (relative to vehicle)” value with TMD8 tumor cells (PO, 90 mg/kg, BID, 23 days of dosing) is 100%; in the data set on TMD8 tumor cells (PO, 90 mg/kg, QD, 23 days of dosing), 93%; with 1:1 TMD8 WT:TMD8 C481S, 54%. The “BTK Remaining (% relative to vehicle)” value was 44% at BTK C481S (5 mg/kg, BID); 38% at BTK C481S (10 mg/kg, QD); 25% at BTK C481S (15 mg/kg, BID); 39% and 35% on BTK C481S (30 mg/kg, BID); 51% and 42% on BTK C481S (30 mg/kg, QD); 36% at BTK C481S (60 mg/kg, QD). Moreover, the “BTK Remaining (% relative to vehicle)” value was 7% at BTK [2] (setting [5]); 18% at BTK [2] (setting [6]); 32% and 20% on BTK [2] (PO, 30 mg/kg, QD, 21 days of dosing).

For the compound `NC(=O)c1ncc(N2CCCCC2)nc1Nc1ccc(C2CCN(C[C@@H]3CCN(c4ccc5c(c4)C(=O)N(C4CCC(=O)NC4=O)C5=O)C3)CC2)cc1` (some centres unmarked) [Compound 149], the “% BTK Remaining” value on BTK [1] (1 mg/kg IV, 2 h) stood at 43%; on BTK [1] (1 mg/kg IV, 4 h) it was 22%; at BTK [1] (1 mg/kg IV, 8 h), 10%; at BTK [1] (1 mg/kg IV, 24 h) it was 11%; on BTK [1] (10 mg/kg PO, 2 h), 61%; on BTK [1] (10 mg/kg PO, 4 h) it was 47%. In addition, the “% BTK Remaining” value on BTK [1] (10 mg/kg PO, 8 h) is recorded as 29%; on BTK [1] (10 mg/kg PO, 24 h), 17%. Moreover, the “effect on ITK levels in cells” value on ITK was “some effect”. The compound further registered an EC50 with Rec-1 cells of 0.17 nM. Further, the “EMAX (% viable cells)” value with Rec-1 cells is reported as 24%.

For the compound `CN1CCN([C@H]2CCCN(c3cnc(C(N)=O)c(Nc4ccc(C5CCN(CC6CCN(c7ccc(C(=O)NC8CCC(=O)NC8=O)nc7)CC6)CC5)cc4)n3)C2)C1=O` (some centres unmarked) [Compound 130], the “effects on ITK levels” value on ITK (FIG. 12) is “slight effects”. In the data set with Rec-1 cells, the concentration giving a half-maximal response (EC50) turned out to be 155 nM. In addition, the “EMAX (% viable cells)” value in the data set with Rec-1 cells came to 63%. In addition, the “% BTK Remaining” value on BTK [3] (1 mg/kg IV, 4 h) is on record as below 1%; at BTK [3] (1 mg/kg IV, 24 h) it was below 1%; at BTK [3] (10 mg/kg PO, 4 h) it was below 1%; at BTK [3] (10 mg/kg PO, 24 h), below 1%; on BTK [3] (30 mg/kg PO, 4 h), below 1%; at BTK [3] (30 mg/kg PO, 24 h), below 1%.

Regarding `CN1CCN([C@@H]2CCCN(c3cnc(C(N)=O)c(Nc4ccc(C5CCN(CC6CCN(c7ccc8c(=O)n(C9CCC(=O)NC9=O)ccc8c7)CC6)CC5)cc4)n3)C2)C1=O` (some centres unmarked) [Compound 72], the “effects on ITK levels” value at ITK (FIG. 12) was “slight effects”; on ITK (setting [4]) it was “does affect”.

For `CN1CCN([C@@H]2CCCN(c3cnc(C(N)=O)c(Nc4ccc(C5CCN(CC6CCN(c7ccc(-c8nn(C9CCC(=O)NC9=O)c(=O)n8C)cc7)CC6)CC5)cc4)n3)C2)C1=O` (some centres unmarked) [Compound 121], the “effects on ITK levels” value at ITK (setting [4]) is “minimal effects”.
